Laboratory results as given in patent publication US9593122B2, “Substituted pyrazolylpyrazole derivative and use of same as herbicide” (KYOYU AGRI CO., LTD., priority 2013, dated 2017).

Experiments:
Format in all cases: in vivo
[1] = system: Scirpus juncoides; experiment: Paddy herbicidal activity test; settings: irrigated paddy pot, 30 days
Method in brief: (§1)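 Flooded paddy-soil pots (3 cm water) were sown with Echinochloa, Monochoria and Scirpus, and rice at the 2.0-leaf stage was transplanted. Diluted wettable powder was dripped in per are at weed 3.5-leaf stage. After 30 days in a greenhouse (~30 °C), growth inhibition versus untreated plants was scored on an 11-level scale.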

[2] = system: Monochoria vaginalis; experiment: Paddy herbicidal activity test; settings: irrigated paddy pot, 30 days
Method in brief: as §1

[3] = system: Echinochloa crus-galli; experiment: Paddy herbicidal activity test; settings: irrigated paddy pot, treated at 3.5 leaf stage of Echinochloa crus-galli, 30 days
Method in brief: as §1

[4] = system: Chenopodium album; experiment: Weed foliar treatment test; settings: foliar spray, 3 weeks
Procedure: (§2) Soil was filled into a 1/6000 are pot followed by seeding with Digitaria ciliaris, Chenopodium album and Amaranthus retroflexus, covering with soil, and cultivating in a glass greenhouse at an average atmospheric temperature of 25° C.
(§3) Wettable powder of Target Compound (I) shown in Table 1 prepared in compliance with the preparation examples were diluted with water to the prescribed amount of chemical and uniformly sprayed onto the weeds using 15 liters of sprayed water per are when Digitaria ciliaris had grown to the 1.0 to 2.0 leaf stage.
(§4) After treating for 3 weeks in a glass greenhouse at an average atmospheric temperature of 25° C., the herbicidal efficacy thereof was investigated.
(§5) Evaluation of herbicidal efficacy was carried out in the same manner as the above-mentioned Test Example 1.

[5] = system: Amaranthus retroflexus; experiment: Weed foliar treatment test; settings: foliar spray, 3 weeks
Procedure: as §2, §3, §4, §5

[6] = system: Digitaria ciliaris; experiment: Weed foliar treatment test; settings: foliar spray at 1.0 to 2.0 leaf stage of Digitaria ciliaris, 3 weeks
Procedure: as §2, §3, §4, §5

[7] = system: Chenopodium album; experiment: Farming soil treatment test; settings: soil surface spray prior to weed growth, 30 days
Procedure: (§6) Field soil was filled into a 1/6000 are pot followed by seeding with Digitaria ciliaris, Chenopodium album and Amaranthus retroflexus and covering with soil.
(§7) Wettable powder of compounds of formula (I) shown in Table 1 prepared in compliance with the preparation examples were diluted with water to the prescribed amount of chemical and uniformly sprayed onto each soil surface layer using 10 liters of sprayed water per are prior to weed growth following seeding.
(§8) After treating for 30 days in a glass greenhouse at an average atmospheric temperature of 30° C., the herbicidal efficacy thereof was investigated.
(§9) Evaluation of herbicidal efficacy is carried out in the same manner as the above-mentioned Test Example 1.

[8] = system: Amaranthus retroflexus; experiment: Farming soil treatment test; settings: soil surface spray prior to weed growth, 30 days
Procedure: as §6, §7, §8, §9

[9] = system: Digitaria ciliaris; experiment: Farming soil treatment test; settings: soil surface spray prior to weed growth, 30 days
Procedure: as §6, §7, §8, §9

[10] = system: Rice plants; experiment: Paddy herbicidal activity test, phytotoxicity to transplanted rice; settings: rice transplanted at 2.0 leaf stage, 30 days
Procedure: Rice paddy soil was filled into a 1/10000 are pot followed by the addition of suitable amounts of water and chemical fertilizer, kneading, seeding with Echinochloa crus-galli, Monochoria vaginalis and Scirpus juncoides and maintaining in an irrigated state at a water depth of 3 cm.
Wettable powder of Target Compound (I) shown in Table 1 prepared in compliance with the preparation examples were diluted with a suitable amount of water, rice plants in the 2.0 leaf stage were transplanted during 3.5 leaf stage of Echinochloa crus-galli, and treated by dropping in chemical in the prescribed amount per are using a pipette.
as §8
Evaluation of herbicidal efficacy was carried out by comparing growth inhibition rate (%) with an untreated group, while evaluation of phytotoxicity was carried out by comparing growth inhibition rate (%) with the state of a complete eradication group, and were evaluated at 11 levels indicated below.

| Structure (SMILES) | Scirpus juncoides herbicidal efficacy (growth inhibition level) ([1]; 1g a.i./10a) | Scirpus juncoides herbicidal efficacy (growth inhibition level) ([1]; 5g a.i./10a) | Monochoria vaginalis herbicidal efficacy (growth inhibition level) ([2]; 1g a.i./10a) | Monochoria vaginalis herbicidal efficacy (growth inhibition level) ([2]; 5g a.i./10a) | Echinochloa crus-galli herbicidal efficacy (growth inhibition level) ([3]; 1g a.i./10a) | Echinochloa crus-galli herbicidal efficacy (growth inhibition level) ([3]; 5g a.i./10a) | Chenopodium album herbicidal efficacy (growth inhibition level) ([4]; 5g a.i./10a) | Chenopodium album herbicidal efficacy (growth inhibition level) ([4]; 10g a.i./10a) | Amaranthus retroflexus herbicidal efficacy (growth inhibition level) ([5]; 5g a.i./10a) | Amaranthus retroflexus herbicidal efficacy (growth inhibition level) ([5]; 10g a.i./10a) | Digitaria ciliaris herbicidal efficacy (growth inhibition level) ([6]; 5g a.i./10a) | Digitaria ciliaris herbicidal efficacy (growth inhibition level) ([6]; 10g a.i./10a) | Chenopodium album herbicidal efficacy (growth inhibition level) ([7]; 5g a.i./10a) | Amaranthus retroflexus herbicidal efficacy (growth inhibition level) ([8]; 5g a.i./10a) | Amaranthus retroflexus herbicidal efficacy (growth inhibition level) ([8]; 10g a.i./10a) | Digitaria ciliaris herbicidal efficacy (growth inhibition level) ([9]; 5g a.i./10a) | Digitaria ciliaris herbicidal efficacy (growth inhibition level) ([9]; 10g a.i./10a) | Rice plants phytotoxicity (growth inhibition level) ([10]; 1g a.i./10a) | Rice plants phytotoxicity (growth inhibition level) ([10]; 5g a.i./10a) | Chenopodium album herbicidal efficacy (growth inhibition level) ([7]; 10g a.i./10a) |
| --- | --- | --- | --- | --- | --- | --- | --- | --- | --- | --- | --- | --- | --- | --- | --- | --- | --- | --- | --- | --- |
| O=[N+]([O-])c1cnn(-c2nn3c(c2Cl)CCCC3)c1NC/C=C\Cl [Compound 32] | 8 (8: 80% to less than 90%) | 10 (10: 100%) | 9 (9: 90% to less than 100%) | 10 (10: 100%) | 8 (8: 80% to less than 90%) | 9 (9: 90% to less than 100%) | 10 (10: 100%) | 10 (10: 100%) | 10 (10: 100%) | 10 (10: 100%) | 10 (10: 100%) | 10 (10: 100%) | 10 (10: 100%) | 10 (10: 100%) | 10 (10: 100%) | 10 (10: 100%) | 10 (10: 100%) | – | – | – |
| C=CCNc1c(C#N)cnn1-c1nn2c(c1Cl)CCCC2 [Control agent 4.59, reference compound] | 2 (2: 20% to less than 30%) | 4 (4: 40% to less than 50%) | 2 (2: 20% to less than 30%) | 4 (4: 40% to less than 50%) | 2 (2: 20% to less than 30%) | 5 (5: 50% to less than 60%) | 6 (6: 60% to less than 70%) | 7 (7: 70% to less than 80%) | 6 (6: 60% to less than 70%) | 7 (7: 70% to less than 80%) | 4 (4: 40% to less than 50%) | 6 (6: 60% to less than 70%) | 5 (5: 50% to less than 60%) | 5 (5: 50% to less than 60%) | 6 (6: 60% to less than 70%) | 5 (5: 50% to less than 60%) | 6 (6: 60% to less than 70%) | 1 (1: 10% to less than 20%) | 2 (2: 20% to less than 30%) | 6 (6: 60% to less than 70%) |
| C=CCN(CC)c1c(C#N)cnn1-c1nn2c(c1Cl)CCCC2 [Control agent 4.75, reference compound] | 2 (2: 20% to less than 30%) | 2 (2: 20% to less than 30%) | 4 (4: 40% to less than 50%) | 5 (5: 50% to less than 60%) | 3 (3: 30% to less than 40%) | 4 (4: 40% to less than 50%) | 6 (6: 60% to less than 70%) | 7 (7: 70% to less than 80%) | 5 (5: 50% to less than 60%) | 7 (7: 70% to less than 80%) | 4 (4: 40% to less than 50%) | 5 (5: 50% to less than 60%) | 5 (5: 50% to less than 60%) | 6 (6: 60% to less than 70%) | 6 (6: 60% to less than 70%) | 3 (3: 30% to less than 40%) | 4 (4: 40% to less than 50%) | 0 (0 (exponent): 0% to less than 10% (growth inhibition rate)) | 1 (1: 10% to less than 20%) | 6 (6: 60% to less than 70%) |
